Reference: PMC3523126 (Journal of the American Chemical Society, 2012)

Legend:
Calpain-1 [1] = target: T1, Calpain-1 (Homo sapiens, UniProt P07384); conditions: pan-papain family cysteine protease ABP; cited from earlier work
T1 sequence (P07384 1-714): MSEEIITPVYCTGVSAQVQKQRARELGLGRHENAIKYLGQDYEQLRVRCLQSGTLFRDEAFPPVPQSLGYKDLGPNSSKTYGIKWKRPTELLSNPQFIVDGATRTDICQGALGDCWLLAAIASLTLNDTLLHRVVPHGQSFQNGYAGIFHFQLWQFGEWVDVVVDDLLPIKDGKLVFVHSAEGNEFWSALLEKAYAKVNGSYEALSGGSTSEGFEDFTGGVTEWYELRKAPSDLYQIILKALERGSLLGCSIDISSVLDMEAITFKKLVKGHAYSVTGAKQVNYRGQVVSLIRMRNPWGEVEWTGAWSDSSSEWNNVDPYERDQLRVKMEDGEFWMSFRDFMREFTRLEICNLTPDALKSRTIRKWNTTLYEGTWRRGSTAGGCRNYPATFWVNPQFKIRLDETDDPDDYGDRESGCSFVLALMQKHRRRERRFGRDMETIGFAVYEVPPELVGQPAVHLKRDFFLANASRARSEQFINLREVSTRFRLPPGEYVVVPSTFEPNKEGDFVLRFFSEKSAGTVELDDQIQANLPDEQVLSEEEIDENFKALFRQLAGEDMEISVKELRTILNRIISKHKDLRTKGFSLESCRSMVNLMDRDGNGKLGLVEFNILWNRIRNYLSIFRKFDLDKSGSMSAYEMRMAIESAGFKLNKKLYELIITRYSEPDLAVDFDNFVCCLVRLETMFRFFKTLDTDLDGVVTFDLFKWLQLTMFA
T1 sequence (P04632 1-268 partner): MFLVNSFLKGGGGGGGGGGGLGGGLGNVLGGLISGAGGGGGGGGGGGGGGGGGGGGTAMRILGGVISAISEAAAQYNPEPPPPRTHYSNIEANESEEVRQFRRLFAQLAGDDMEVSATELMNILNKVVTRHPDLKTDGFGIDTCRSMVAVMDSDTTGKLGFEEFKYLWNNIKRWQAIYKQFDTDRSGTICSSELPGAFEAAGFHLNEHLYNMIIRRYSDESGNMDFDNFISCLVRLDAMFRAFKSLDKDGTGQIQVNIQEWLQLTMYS

Calpain-1 [2] = target: T1, Calpain-1; experiment: Kinetic analysis of calpain-1 inhibition; type: biochemical; conditions: crosslinked peptide; Michaelis-Menten and Lineweaver-Burke analysis
Cathepsin L = Cathepsin L (Homo sapiens, UniProt P07711); experiment: Protease fluorescence activity assay, cathepsin L inhibition; type: biochemical; conditions: crosslinked peptide; ratio of Ki values
Sequence of Cathepsin L (P07711 114-333, species assumed): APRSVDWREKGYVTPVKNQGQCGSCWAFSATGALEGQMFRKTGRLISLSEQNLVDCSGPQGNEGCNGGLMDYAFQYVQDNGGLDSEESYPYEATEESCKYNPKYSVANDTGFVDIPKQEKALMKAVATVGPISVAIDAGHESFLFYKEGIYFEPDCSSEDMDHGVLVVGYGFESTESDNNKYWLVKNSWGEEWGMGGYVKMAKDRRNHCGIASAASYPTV

Structure (SMILES)	Labeling of calpains (positive control) (Calpain-1 [1])	Mechanism of calpain-1 inhibition (Calpain-1 [2])	Potency against calpain over cathepsin L (Cathepsin L)
CCOC(=O)[C@H]1O[C@@H]1C(=O)N[C@@H](CC(C)C)C(=O)N[C@@H](Cc1ccc(O)cc1)C(=O)NCCCCCC(=O)N[C@@H](CCCCNC(=O)CCCC[C@@H]1SC[C@@H]2NC(=O)N[C@@H]21)C(N)=O [DCG-04]	known to label calpains		
CC[C@H](C)[C@H](NC(C)=O)C(=O)N1CCC[C@H]1C(=O)N1CCC[C@H]1C(=O)N[C@@H](CCCCN)C(=O)N[C@@H](Cc1ccc(O)cc1)C(=O)N[C@H]1CSCc2cccc(c2)CSC[C@@H](C(N)=O)NC(=O)[C@H](CC(C)C)NC(=O)[C@H](CC(C)C)NC(=O)[C@H](CCC(=O)O)NC1=O [Peptide 3c]		competitive inhibitor	about four fold more potent
